Legend:
[1] = system: UM-SCC-35; experiment: Retinoid metabolism / turnover rate, HPLC; details: for Metabolites Pellet: UM-SCC-35 cell pellet
From the text: (§1) Retinoic acid is an active metabolite of retinol (ROL, vitamin A) that plays an important role in growth and differentiation of a variety of cell types (Gudas et al, 1994). […] This is a whitish and reddish plaque in the epithe- lial lining in the oral cavity that have a relatively high risk to become malignant. […] One impor- tant route of ATRA metabolism consists of hydroxylation at posi- tion 4 of the cyclohexenyl ring to form 4-hydroxy-RA, which is readily oxidized to 4-oxo-RA. Other metabolic pathways of ATRA include isomerization, decarboxylation and glucuronidation processes (Rockley et al, 1980; Roberts et al, 1980; Sass et al, 1994). In vitro, 4-hydroxylation of ATRA is mediated by a cytochrome P450 (CYP)-dependent mono-oxogenase system that requires NAPDH and oxygen (Roberts et al, 1980). The present study was undertaken to investigate to what extent a panel of retinoids, including 13cRA, is able to inhibit growth of HNSCC cells and cultures of normal oral keratinocytes (OKC). […] After binding of retinoids to retinoic acid receptors (RARs and RXRs) dimers are formed that are able to regulate the expression of genes involved in growth and differentiation. We compared the metabolism and level of growth inhibition of 13cRA with that of ATRA, 9cRA and retinol in four HNSCC cell lines and normal oral keratinocyte cultures (OKC).

[2] = system: CYP26; design: method as in Sonneveld et al, 1998; details: ref Sonneveld et al, 1998; cited from earlier work
[3] = system: UM-SCC-22A; experiment: Retinoid metabolism / turnover rate, HPLC; design: Metabolites Medium: dose or concentration left out as unconfirmed; details: for Metabolites Medium: UM-SCC-22A medium; for Metabolism (turnover rate) Mean: 24 h
From the text: as §1

[4] = system: normal oral keratinocyte cultures (OKC); experiment: Retinoid metabolism / turnover rate, HPLC; design: Metabolites Medium: dose or concentration left out as unconfirmed
From the text: as §1

[5] = system: UM-SCC-14C; experiment: Retinoid metabolism / turnover rate, HPLC; design: Metabolites Medium: dose or concentration left out as unconfirmed; details: for Metabolites Medium: UM-SCC-14C medium; for Metabolism (turnover rate) Mean: 24 h
From the text: as §1

[6] = system: UM-SCC-35R; experiment: Retinoid metabolism / turnover rate, HPLC; design: Metabolites Medium: dose or concentration left out as unconfirmed; details: for Metabolism (turnover rate) Mean: 24 h
From the text: as §1

[7] = system: oral leukoplakia; details: ref Koch, 1978; cited from earlier work
[8] = 72 h exposure, 1 mM retinoid, HPLC
[9] = OKC, exposed, decrease in medium and cells between 4 and 24 h

| SMILES | Metabolites Pellet [1, 8] | Metabolism by CYP26 [2] | Metabolites Medium ([3]; 72 h exposure, HPLC) | Metabolism (turnover rate) Mean [4, 9] | Metabolites Medium ([5]; 72 h exposure, HPLC) | Metabolism (turnover rate) Mean ([1]; human, 24 h, 1 µM) | Isomerization to other RA isomers ([3]; human, 1 µM) | Metabolism (turnover rate) Mean ([3]; human, 1 µM) | Isomerization to other RA isomers ([4]; human, 1 µM) | Metabolism (turnover rate) Mean ([4]; human, 24 h, 1 µM) | Isomerization to other RA isomers ([5]; human, 1 µM) | Metabolism (turnover rate) Mean ([5]; human, 1 µM) | Metabolism (turnover rate) Mean ([6]; human, 1 µM) | also measured |
| --- | --- | --- | --- | --- | --- | --- | --- | --- | --- | --- | --- | --- | --- | --- |
| CC1=C(/C=C/C(C)=C\C=C\C(C)=C\C(=O)O)C(C)(C)CCC1 [9cRA, 9-cis-RA] | b (between 10 and 15 min) | can not metabolize | a,b | 12.0 pmol per mg protein per hour | a,b |  |  |  |  |  |  |  |  | Metabolites Medium ([1]; UM-SCC-35 medium, 72 h exposure, 1 mM retinoid, HPLC): a,b,c; Isomerization to other RA isomers ([3]; UM-SCC-22A, ATRA to 13cRA, 13cRA to ATRA, 9cRA to ATRA and 13cRA): up to 5%; Isomerization to other RA isomers ([4]; OKC, ATRA to 13cRA, 13cRA to ATRA, 9cRA to ATRA and 13cRA): up to 5%; Isomerization to other RA isomers ([5]; UM-SCC-14C, ATRA to 13cRA, 13cRA to ATRA, 9cRA to ATRA and 13cRA): up to 5%; Metabolites Pellet ([6]; UM-SCC-35R cell pellet, 72 h exposure, HPLC): b (between 10 and 15 min); Metabolites Medium ([6]; UM-SCC-35R medium, 72 h exposure, HPLC): a,b |
| CC1=C(/C=C/C(C)=C/C=C/C(C)=C/CO)C(C)(C)CCC1 [ROL, retinol] | c1 |  | d1 | 98.7 pmol per mg protein per hour | d1 |  |  |  |  |  |  |  |  | Formation of other retinoids after exposure ([1]; UM-SCC-35): no or very small amounts of other retinoids; Metabolites Pellet ([3]; UM-SCC-22A cell pellet, 72 h exposure, HPLC): d1; Metabolites Pellet ([4]; OKC cell pellet, 72 h exposure, HPLC): d1; Metabolites Medium ([4]; OKC medium, 72 h exposure, HPLC): d1; Formation of ATRA after exposure ([5]; UM-SCC-14C): relatively high formation of ATRA; Metabolites Pellet ([5]; UM-SCC-14C cell pellet, 72 h exposure, HPLC): d1; Formation of other retinoids after exposure ([6]; UM-SCC-35R): no or very small amounts of other retinoids |
| CC1=C(/C=C/C(C)=C/C=C/C(C)=C\C(=O)O)C(C)(C)CCC1 [13cRA, 13-cis-retinoic acid] |  | can not metabolize |  |  |  | 949.5 pmol per mg protein per hour | up to 10% | 154.1 pmol per mg protein per hour | up to 10% | 38.8 pmol per mg protein per hour | up to 10% | 78.7 pmol per mg protein per hour | 6.9 pmol per mg protein per hour | Metabolites Pellet ([3]; human, 72 h, 1 µM): d2; Metabolites Pellet ([4]; human, 72 h, 1 µM): d2; Metabolites Pellet ([5]; human, 72 h, 1 µM): d2; Metabolites Pellet ([6]; human, 72 h, 1 µM): b,d2 |
| CC1=C(/C=C/C(C)=C/C=C/C(C)=C/C(=O)O)C(C)(C)CCC1 [ATRA, all-trans-retinoic acid] |  | highly substrate (ATRA) specific |  |  |  | 1,016.0 pmol per mg protein per hour | up to 10% | 104.8 pmol per mg protein per hour | up to 10% | 14.8 pmol per mg protein per hour | up to 10% | 13.3 pmol per mg protein per hour | 52.7 pmol per mg protein per hour | Proportion of leukoplakia patients in whom active [7]: 59%; Major metabolite ([1]; human, 24 h, 1 µM): 4-OH-RA |

— PMC2364086, “Metabolism and growth inhibition of four retinoids in head and neck squamous normal and malignant cells” (British Journal of Cancer, 2001)
